This note sets out measurements from patent US20110195997A1, “Dicarboxamide Derivatives” (priority 2006, published 2011).

This assay addresses T1, human factor Xa (Homo sapiens, UniProt P00742).
T1 construct: Factor Xa is a serine endopeptidase composed of two disulfide-linked subunits; purchased Enzyme Research Laboratories
Kind of assay: chromogenic peptide substrate assay, inhibition of factor Xa. The assay is classed as biochemical. Particulars: human factor Xa 3 nM, chromogenic substrate S-2222, pH 7.8, room temperature; apparent Ki from IC50 by Cheng-Prusoff. Here is the method:
Factor Xa activity was measured spectrophotometrically in microtiter plates in a final volume of 150 μl using the following conditions: Inhibition of human factor Xa (Enzyme Research Laboratories) was tested at an enzyme concentration of 3 nM using the chromogenic substrate S-2222 (Chromogenix AB, Mölndal, Sweden) at […]. The reaction kinetics of the enzyme and the substrate were linear with both time and the enzyme concentration. The inhibitors were dissolved in DMSO and tested at various concentrations up to 100 μM. The inhibitors were diluted using HNPT buffer consisting of HEPES 100 mM, NaCl 140 mM, PEG 6000 0.1% and Tween 80 0.02%, pH 7.8. […] The velocity of the reaction was determined by the autoreader from the slope of the linear regression fit to 7 time points (1 minute). The initial velocity for each inhibitor concentration was determined by the slope of at least 4 time points in the linear phase by a linear regression fit […]. Apparent dissociation constants Ki were calculated according to Cheng and Prusoff [Cheng, Y. C.; Prusoff, W. H. Relationship between the inhibition constant (Ki) and the concentration of the inhibitor that causes 50 percent inhibition (IC50) of an enzyme reaction. Biochem. Pharmacol. 1973, 22, 3099-3108.] based on the IC50 and the respective Km, determined previously (Ki=IC50/(1+S/Km)). […]

T1 sequence (P00742 235-488 limits assumed): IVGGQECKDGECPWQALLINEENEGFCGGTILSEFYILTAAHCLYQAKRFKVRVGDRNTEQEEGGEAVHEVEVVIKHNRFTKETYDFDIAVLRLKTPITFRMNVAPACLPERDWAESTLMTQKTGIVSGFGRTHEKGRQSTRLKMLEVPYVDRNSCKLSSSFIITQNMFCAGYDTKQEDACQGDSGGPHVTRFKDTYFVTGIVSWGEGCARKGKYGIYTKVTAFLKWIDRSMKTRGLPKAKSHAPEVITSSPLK
T1 sequence (P00742 41-179 partner limits assumed): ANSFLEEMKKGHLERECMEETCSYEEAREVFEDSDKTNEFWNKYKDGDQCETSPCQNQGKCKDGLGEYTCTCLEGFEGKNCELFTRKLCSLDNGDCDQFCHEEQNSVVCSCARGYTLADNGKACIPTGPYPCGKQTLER

For `O=C(Nc1ccc(-n2ccccc2=O)cc1F)[C@H]1C[C@H]1C(=O)Nc1ccc(Cl)cn1` (single isomer, unassigned) [Example 1.4 (1S,2R) enantiomer], the Ki worked out at 0.003 µM.
